The test system of series [1] is bilateral knee osteoarthritis. The experiment in a line: Agmatine Administration Case 2: consecutive self-treatment with acetaminophen, GCM formulation and agmatine (VAS, WOMAC). It counts as in vivo, human. As to conditions: agmatine taken with acetaminophen and with acetaminophen/GCM formulation. The source says: In a second study, four participants had bilateral symptoms of mild-to-moderate chronic, frequent knee pain typical of knee osteoarthritis according to a WOMAC Index score range of >25 and <100. They are compared in Table 2. Participants began taking acetaminophen (as TYLENOL®) as needed over the course of the symptom duration: Referring to FIG. 1, the four participants self-treated consecutively as follows: starting with Acetaminophen (as TYLENOL®, considered a standard drug treatment) used as a rescue medication for the duration of their symptoms for 4 to 6 months, followed by a sixty-day treatment period with acetaminophen plus a GCM formulation (i.e., glucosamine HCl, chondroitin sulfate, and methylsulfonylmethane (MSM)). The GCM formulation was followed by sixty-day period using a combination comprising acetaminophen, the GCM formulation, and agmatine (taken as the G-AGMATINE® brand of agmatine sulfate). […] Referring to FIG. 3, changes in the WOMAC ratings are shown, expressed as a percentage of total scores, at the specified time intervals after initiation of each of the acetaminophen (labeled “acet in the figure), acetaminophen and GCM formulation, and the combination acetaminophen/GCM formulation/agmatine treatment regimens. […]

In series [2] the test system is bilateral knee osteoarthritis. The experiment in a line: Agmatine Administration Case 1: self-treatment and self-rating of knee osteoarthritis symptoms (WOMAC Index, VAS). The series is classed as in vivo, human. As to conditions: for VAS Score / WOMAC (% Total Score): treatment duration 12-14 months. The source says: Two study participants, each suffering from bilateral knee osteoarthritis, were consecutively self-treated as shown in the following Table 1: Treatment started with acetaminophen (as TYLENOL®, considered standard drug treatment) used as a rescue medication for the duration of their symptoms, 12 or 14 months as needed, followed by a 12-week treatment period of acetaminophen plus agmatine (taken as the G-AGMATINE® brand of agmatine sulfate). The participants self-rated their OA symptoms according to the WOMAC (Western Ontario and McMaster Universities Osteoarthritis) Index and according to the Visual Analog (pain) Scale (VAS). They had bilateral symptoms of mild-to-moderate chronic, frequent knee pain typical of knee OA according to WOMAC, score range of >25 and <100. Table 1 presents a summary of the participants' characteristics and treatment assessment at the indicated follow-up times. For the entire acetaminophen-only treatment, the dosage was 500 milligrams per caplet, and the frequency was two caplets every six hours, as needed (i.e., 1000 mg per six-hour period). For the acetaminophen plus agmatine regimen, the participants' initial dosage of acetaminophen was 500 milligrams per caplet with an initial dosage of agmatine of 450 milligrams per capsule. While the frequency of acetaminophen dosage for both participants remained two caplets every six hours, the frequency of the agmatine capsules was six capsules daily (i.e., 2,700 mg per day). […] Participant 1 eliminated acetaminophen after six weeks, and participant 2 eliminated acetaminophen after eight weeks of treatment. Thereafter, the participants were taking only agmatine and reduced the quantity of agmatine by one third (i.e., a regimen of 1,800 mg per day).

For series [3] the following is noted: humans, ingested; cited from earlier work.

Molecules are shown by their SMILES.

Regarding `N=C(N)NCCCCN` [Agmatine], in series [1], the “Effect on improving OA symptoms (in words)” value is “unexpected synergistic effect”. Moreover, in series [2] (agmatine taken with acetaminophen, two participants), the “Effect on OA symptoms (in words)” value is recorded as “dramatic improvement in OA symptoms”. In addition, in series [3], the apparent blood half-life result is recorded as “about two”.
Consider `CC(=O)Nc1ccc(O)cc1` [Acetaminophen], for which the “VAS Score” value is on record as 6.0 in series [2] (Participant #1, acetaminophen as needed) and 6.5 in series [2] (Participant #2, acetaminophen as needed). In addition, the “WOMAC (% Total Score)” value in series [2] (Participant #1, acetaminophen as needed (entry two)) was determined as 83.3 % Total Score; in series [2] (Participant #2 (person one), acetaminophen as needed), 85.4 % Total Score.

These data come from patent publication US11877990B1, “Agmatine compositions for treatment of osteoarthritis” (priority 2022, dated 2024).
